We go through 25 compounds from patent publication US10344025B2, “GLS1 inhibitors for treating disease” (Board of Regents, The University of Texas System, priority 2014, dated 2019).

Read-outs that look alike come from different tables or passages of the source.

By IC50 is commonly meant the concentration needed to halve the response being measured. The term EC50 denotes the concentration giving half of the maximal effect. High values mean weaker potency, low ones greater potency.

Test [1] addresses purified recombinant human GAC (GLS1) (Homo sapiens (Human), UniProt O94925). The test is described as follows: GLS1 Enzymatic Activity Assay (dual-coupled enzymatic assay, resorufin/Amplex UltraRed readout).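 Note: glutamate from GAC coupled via glutamate oxidase and peroxidase to resorufin, read as fluorescence (ex 530, em 590 nm) kinetically or at 20 min, four-parameter logistic IC50 fit.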 Format: biochemical.
The test system of test [2] is A549 cells. Nature of the test: Proliferation Assay (A549 viability, Cell Titer Fluor, 72 hours). Type of test: cell-based. The gist of the method:
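Cell Titer Fluor fluorescence after 72 h compound treatment (0.5% DMSO, 37 °C, 5% CO2) of A549 cells plated 24 h earlier at 1000/well. Four-parameter logistic fitting gave IC50.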

Chain of purified recombinant human GAC (GLS1) (O94925 other isoform, or with tags, fused parts or gaps): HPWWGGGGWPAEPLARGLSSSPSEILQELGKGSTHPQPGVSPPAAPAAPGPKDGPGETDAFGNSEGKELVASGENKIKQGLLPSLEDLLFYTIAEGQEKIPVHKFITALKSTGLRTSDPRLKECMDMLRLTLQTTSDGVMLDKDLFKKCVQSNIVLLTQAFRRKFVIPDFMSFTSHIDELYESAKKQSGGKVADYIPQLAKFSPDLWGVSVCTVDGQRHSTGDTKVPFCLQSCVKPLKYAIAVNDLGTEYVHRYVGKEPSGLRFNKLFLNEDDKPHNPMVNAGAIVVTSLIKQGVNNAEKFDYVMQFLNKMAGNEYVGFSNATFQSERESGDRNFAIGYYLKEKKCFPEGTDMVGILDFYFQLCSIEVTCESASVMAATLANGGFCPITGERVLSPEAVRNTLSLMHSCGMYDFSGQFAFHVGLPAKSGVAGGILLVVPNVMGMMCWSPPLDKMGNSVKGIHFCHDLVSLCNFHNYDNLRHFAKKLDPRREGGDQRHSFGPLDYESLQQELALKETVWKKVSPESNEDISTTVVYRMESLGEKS

Regarding `CC(=O)Nc1ccc(CCCCn2cc(C(=O)NCc3cccc(OC(F)(F)F)c3)nn2)nn1` [Example 174, 1-[4-(6-acetamidopyridazin-3-yl)butyl]-N-{[3-(trifluoromethoxy)phenyl]methyl}-1H-1,2,3-triazole-4-carboxamide], the IC50 in test [1] was less than 100 nM. This compound returned an EC50 in test [2] (Homo sapiens, A549, 72 h) of 100 to 500 nM.

With `CC(=O)Nc1ccc(CCCCn2cc(C(=O)NCc3cc(C(F)(F)F)ccn3)nn2)nn1` [Example 175, 1-[4-(6-acetamidopyridazin-3-yl)butyl]-N-{[4-(trifluoromethyl)pyridin-2-yl]methyl}-1H-1,2,3-triazole-4-carboxamide], the IC50 in test [1] is less than 100 nM. This compound registered a concentration for a half-maximal effect (EC50) in test [2] (Homo sapiens, A549, 72 h) of 100 to 500 nM.

`O=C(NCc1cccc(OC(F)(F)F)c1)c1cn(CCCCc2ccc(NC(=O)C3CC3)nn2)nn1` [Example 176, 1-[4-(6-cyclopropaneamidopyridazin-3-yl)butyl]-N-{[3-(trifluoromethoxy)phenyl]methyl}-1H-1,2,3-triazole-4-carboxamide]: the IC50 in test [1] was less than 100 nM. The compound also displayed an EC50 in test [2] (Homo sapiens, A549, 72 h) of 100 to 500 nM.

Take `O=C(NCc1cc(C(F)(F)F)ccn1)c1cn(CCCCc2ccc(NC(=O)C3CC3)nn2)nn1` [Example 177, 1-[4-(6-cyclopropaneamidopyridazin-3-yl)butyl]-N-{[4-(trifluoromethyl)pyridin-2-yl]methyl}-1H-1,2,3-triazole-4-carboxamide]: in test [1], the IC50 is less than 100 nM. The EC50 in test [2] (Homo sapiens, A549, 72 h) lay in the range of 100 to 500 nM.

For `CNC(=O)c1cn(CCCCc2ccc(NC(=O)Cc3cccc(N4CCOCC4)c3)nn2)nn1` [Example 178, N-methyl-1-[4-(6-{2-[3-(morpholin-4-yl)phenyl]acetamido}pyridazin-3-yl)butyl]-1H-1,2,3-triazole-4-carboxamide], the concentration for half-maximal inhibition (IC50) in test [1] is less than 100 nM. In test [2] (Homo sapiens, A549, 72 h), this compound yielded a half-maximal effective concentration (EC50) of 100 to 500 nM.

Take `CNC(=O)c1cn(CCCCc2ccc(NC(=O)[C@@H](C)c3ccccc3)nn2)nn1` [Example 179, N-methyl-1-(4-{6-[(2S)-2-phenylpropanamido]pyridazin-3-yl}butyl)-1H-1,2,3-triazole-4-carboxamide]: the IC50 in test [1] is less than 100 nM. The compound further yielded a half-maximal effective concentration (EC50) in test [2] (Homo sapiens, A549, 72 h) of 500 to 5000 nM.

As to `CNC(=O)c1cn(CCCCc2ccc(NC(=O)Cc3cccc(Cl)c3F)nn2)nn1` [Example 180, 1-(4-{6-[2-(3-chloro-2-fluorophenyl)acetamido]pyridazin-3-yl}butyl)-N-methyl-1H-1,2,3-triazole-4-carboxamide], the IC50 in test [1] was less than 100 nM. The EC50 in test [2] (Homo sapiens, A549, 72 h) was in the range of 100 to 500 nM.

With `CNC(=O)c1cn(CCC(F)Cn2cc(C(=O)NCc3ccc(OC(F)F)cc3)nn2)nn1` (centres unmarked) [Example 181, 1{4-[4-({[4-(difluoromethoxy)phenyl]methyl}carbamoyl)-1H-1,2,3-triazol-1-yl]-3-fluorobutyl}-N-methyl-1H-1,2,3-triazole-4-carboxamide], in test [1], the half-maximal inhibitory concentration (IC50) was in the range of 100 to 500 nM. In test [2] (Homo sapiens, A549, 72 h), this compound showed a concentration giving a half-maximal response (EC50) of 500 to 5000 nM.

As to `CNC(=O)c1cn(CCC(F)Cn2cc(C(=O)NCc3cccc(C#N)c3)nn2)nn1` (centres unmarked) [Example 182, 1-[4-(4-{[(3-cyanophenyl)methyl]carbamoyl}-1H-1,2,3-triazol-1-yl)-3-fluorobutyl]-N-methyl-1H-1,2,3-triazole-4-carboxamide], the IC50 in test [1] lay in the range of 100 to 500 nM. Moreover, the EC50 in test [2] (Homo sapiens, A549, 72 h) is more than 5000 nM.

Regarding `CNC(=O)c1cn(CCC(F)Cn2cc(C(=O)NCc3cccc(S(C)(=O)=O)c3)nn2)nn1` (centres unmarked) [Example 183, 1-[3-fluoro-4-(4-{[(3-methanesulfonylphenyl)methyl]carbamoyl}-1H-1,2,3-triazol-1-yl)butyl]-N-methyl-1H-1,2,3-triazole-4-carboxamide], the IC50 in test [1] lay in the range of 100 to 500 nM. For the same compound, in test [2] (Homo sapiens, A549, 72 h), the EC50 was more than 5000 nM.

`CNC(=O)c1cn(CCC(F)Cn2cc(C(=O)NCc3ccc(C(F)(F)F)cn3)nn2)nn1` (centres unmarked) [Example 184, 1-{3-fluoro-4-[4-({[5-(trifluoromethyl)pyridin-2-yl]methyl}carbamoyl)-1H-1,2,3-triazol-1-yl]butyl}-N-methyl-1H-1,2,3-triazole-4-carboxamide]: the half-inhibitory concentration (IC50) in test [1] lay in the range of 500 to 5000 nM. In test [2] (Homo sapiens, A549, 72 h), the EC50 is more than 5000 nM.

As to `CNC(=O)c1cn(CCC(F)Cn2cc(C(=O)NCc3cccc(C(=O)OC)c3)nn2)nn1` (centres unmarked) [Example 185, methyl 3-{[(1-{2-fluoro-4-[4-(methylcarbamoyl)-1H-1,2,3-triazol-1-yl]butyl}-1H-1,2,3-triazol-4-yl)formamido]methyl} benzoate], in test [1], the concentration for half-maximal inhibition (IC50) was 100 to 500 nM. In test [2] (Homo sapiens, A549, 72 h), this compound yielded an EC50 of 500 to 5000 nM.

With `CNC(=O)c1cn(CCC(F)Cn2cc(C(=O)NCc3ccc(C(F)(F)F)nc3)nn2)nn1` (centres unmarked) [Example 186, 1-{3-fluoro-4-[4-({[6-(trifluoromethyl)pyridin-3-yl]methyl}carbamoyl)-1H-1,2,3-triazol-1-yl]butyl}-N-methyl-1H-1,2,3-triazole-4-carboxamide], the IC50 in test [1] is 100 to 500 nM. This compound displayed an EC50 in test [2] (Homo sapiens, A549, 72 h) of 500 to 5000 nM.

`CNC(=O)c1cn(CCC(F)Cn2cc(C(=O)NCc3ccc(C)nc3)nn2)nn1` (centres unmarked) [Example 187, 1-[3-fluoro-4-(4-{[(6-methylpyridin-3-yl)methyl]carbamoyl}-1H-1,2,3-triazol-1-yl)butyl]-N-methyl-1H-1,2,3-triazole-4-carboxamide]: in test [1], the IC50 was 100 to 500 nM. In test [2] (Homo sapiens, A549, 72 h), this compound came in with a half-maximal effective concentration (EC50) of more than 5000 nM.

In the case of `CNC(=O)c1cn(CCCCc2ccc(NC(=O)Cc3cncc(-c4cccc(OC(F)(F)F)c4)c3)nn2)nn1` [Example 188, N-methyl-1-(4-(6-(2-(5-(3-(trifluoromethoxy)phenyl)pyridin-3-yl)acetamido)pyridazin-3-yl)butyl)-1H-1,2,3-triazole-4-carboxamide], in test [1], the IC50 is less than 100 nM. For the same compound, the EC50 in test [2] (Homo sapiens, A549, 72 h) was less than 100 nM.

Regarding `CNC(=O)c1cn(CC(F)CCc2nnc(C(=O)NCc3ccc(C(F)(F)F)cn3)s2)nn1` (centres unmarked) [Example 189, 5-{3-fluoro-4-[4-(methylcarbamoyl)-1H-1,2,3-triazol-1-yl]butyl}-N-{[5-(trifluoromethyl)pyridin-2-yl]methyl}-1,3,4-thiadiazole-2-carboxamide], in test [1], the IC50 was in the range of 500 to 5000 nM. In test [2] (Homo sapiens, A549, 72 h), this compound gave an EC50 of more than 5000 nM.

Turning to `CNC(=O)c1cn(C[C@@H](F)CCc2nnc(NC(=O)Cc3cccc(OC(F)(F)F)c3)s2)nn1` [Example 193, (S)-1-(2-fluoro-4-(5-(2-(3-(trifluoromethoxy)phenyl)acetamido)-1,3,4-thiadiazol-2-yl)butyl)-N-methyl-1H-1,2,3-triazole-4-carboxamide], in test [1], the IC50 is less than 100 nM. The compound further had an EC50 in test [2] of 500 to 5000 nM.

Consider `CNC(=O)c1cn(C[C@@H](F)CCc2nnc(NC(=O)Cc3cccc(OC(F)(F)F)c3)s2)nn1` [Example 194, (S)-1-(2-fluoro-4-(5-(2-(3-(trifluoromethoxy)phenyl)acetamido)-1,3,4-thiadiazol-2-yl)butyl)-N-methyl-1H-1,2,3-triazole-4-carboxamide], for which, in test [1], the IC50 is less than 100 nM. This compound also came in with a half-maximal effective concentration (EC50) in test [2] of less than 100 nM.

With `CNC(=O)c1cn(CC(F)CCc2nnc(NC(=O)Cc3cncc(-c4cccc(OC(F)(F)F)c4)c3)s2)nn1` (centres unmarked) [Example 195, 1-(2-fluoro-4-(5-(2-(5-(3-(trifluoromethoxy)phenyl)pyridin-3-yl)acetamido)-1,3,4-thiadiazol-2-yl)butyl)-N-methyl-1H-1,2,3-triazole-4-carboxamide], in test [1], the IC50 is less than 100 nM. Moreover, the half-maximal effective concentration (EC50) in test [2] (Homo sapiens, A549, 72 h) is less than 100 nM.

`O=C(Cc1ccccn1)Nc1nnc(CC[C@H](F)Cn2cc(C(=O)NCc3cc(OC(F)(F)F)ccc3F)nn2)s1` [Example 197, (S)-1-(2-fluoro-4-(5-(2-(pyridin-2-yl)acetamido)-1,3,4-thiadiazol-2-yl)butyl)-N-(2-fluoro-5-(trifluoromethoxy)benzyl)-1H-1,2,3-triazole-4-carboxamide]: in test [1], the IC50 is less than 100 nM. The compound also came in with a 50% effective concentration (EC50) in test [2] (Homo sapiens, A549, 72 h) of less than 100 nM.

Take `O=C(Cc1ccccn1)Nc1nnc(CC[C@@H](F)Cn2cc(C(=O)NCc3cc(OC(F)(F)F)ccc3F)nn2)s1` [Example 198, (R)-1-(2-fluoro-4-(5-(2-(pyridin-2-yl)acetamido)-1,3,4-thiadiazol-2-yl)butyl)-N-(2-fluoro-5-(trifluoromethoxy)benzyl)-1H-1,2,3-triazole-4-carboxamide]: in test [1], the half-maximal inhibitory concentration (IC50) is less than 100 nM. This compound also yielded an EC50 in test [2] (Homo sapiens, A549, 72 h) of less than 100 nM.

Regarding `CNC(=O)c1cn(CCCCc2ccc(NC(=O)Cc3cccc(C4=CCOCC4)c3)nn2)nn1` [Example 199, 1-(4-(6-(2-(3-(3,6-dihydro-2H-pyran-4-yl)phenyl)acetamido)pyridazin-3-yl)butyl)-N-methyl-1H-1,2,3-triazole-4-carboxamide], the half-inhibitory concentration (IC50) in test [1] was less than 100 nM. In test [2] (Homo sapiens, A549, 72 h), the EC50 was 100 to 500 nM.

Regarding `O=C(Cc1ccccn1)Nc1nnc(CC[C@@H](F)Cn2cc(C(=O)NCc3ccc(C(F)(F)F)cn3)nn2)s1` [Example 201, (R)-1-(2-fluoro-4-(5-(2-(pyridin-2-yl)acetamido)-1,3,4-thiadiazol-2-yl)butyl)-N-((5-(trifluoromethyl)pyridin-2-yl)methyl)-1H-1,2,3-triazole-4-carboxamide], the concentration for half-maximal inhibition (IC50) in test [1] was less than 100 nM. In test [2] (Homo sapiens, A549, 72 h), this compound registered a concentration giving a half-maximal response (EC50) of 100 to 500 nM.

As to `O=C(Cc1cc(OC(F)(F)F)ccc1F)Nc1nnc(CCC(F)Cn2cc(C(=O)NCc3ccccn3)nn2)s1` (centres unmarked) [Example 204, 1-(2-fluoro-4-(5-(2-(2-fluoro-5-(trifluoromethoxy)phenyl)acetamido)-1,3,4-thiadiazol-2-yl)butyl)-N-(pyridin-2-ylmethyl)-1H-1,2,3-triazole-4-carboxamide], the IC50 in test [1] is less than 100 nM. The compound further yielded a 50% effective concentration (EC50) in test [2] (Homo sapiens, A549, 72 h) of less than 100 nM.

`COc1ccnc(CNC(=O)c2cn(CC(F)CCc3nnc(NC(=O)Cc4cc(OC(F)(F)F)ccc4F)s3)nn2)c1` (centres unmarked) [Example 205, 1-(2-fluoro-4-(5-(2-(2-fluoro-5-(trifluoromethoxy)phenyl)acetamido)-1,3,4-thiadiazol-2-yl)butyl)-N-((4-methoxypyridin-2-yl)methyl)-1H-1,2,3-triazole-4-carboxamide]: the IC50 in test [1] was less than 100 nM. In addition, the half-maximal effective concentration (EC50) in test [2] (Homo sapiens, A549, 72 h) was less than 100 nM.
